Laboratory results reported in US20230265116A1, “DEGRADATION OF (EGFR) BY CONJUGATION OF EGFR INHIBITORS WITH E3 LIGASE LIGAND AND METHODS OF USE” (BEIGENE, LTD., priority 2020, published 2023).

Experiments:
[1] = system: EGFR Del19/T790M/C797S (BaF3-DTC cells); test: EGFR degradation HTRF assay, BaF3-DTC cells; assay type: cell-based; conditions: 16h treatment; for DTC Dmax (%): maximum percentage of degradation; for DC50: read-out: DTC DC50
Summary of the method: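 BaF3 (WT, Del19/T790M/C797S) and HCC827 cells exposed 16 h at 37 °C, 5% CO2 to compounds in 0.2% DMSO medium, 8 doses from 10 uM top, 5-fold steps. Lysates read by HTRF (665/620 nm); degradation % vs DMSO control, DC50 from four-parameter fit, Dmax as maximal degradation.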

[2] = molecular target: T1, EGFR L858R/T790M/C797S (BaF3-LTC cells) (Homo sapiens, UniProt P00533, C797S/L858R/T790M); test: EGFR degradation HTRF assay, BaF3-LTC cells; assay type: cell-based; conditions: BaF3-LTC, 16h treatment; for Dmax: maximum percentage of degradation, read-out: LTC Dmax (%); for DC50: read-out: LTC DC50
T1 construct: expressed in transfected cells; host or cells: BaF3
Summary of the method: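 EGFR remaining after a 16 h, 37 °C exposure (8 doses, 5-fold steps from 10 uM final, 0.2% DMSO) was quantified by HTRF antibodies in cell lysate. Percent inhibition relative to DMSO control was fitted by four-parameter logistic to give DC50; Dmax denotes maximal degradation.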

T1 sequence (P00533 25-1210 T790M/C797S/L858R): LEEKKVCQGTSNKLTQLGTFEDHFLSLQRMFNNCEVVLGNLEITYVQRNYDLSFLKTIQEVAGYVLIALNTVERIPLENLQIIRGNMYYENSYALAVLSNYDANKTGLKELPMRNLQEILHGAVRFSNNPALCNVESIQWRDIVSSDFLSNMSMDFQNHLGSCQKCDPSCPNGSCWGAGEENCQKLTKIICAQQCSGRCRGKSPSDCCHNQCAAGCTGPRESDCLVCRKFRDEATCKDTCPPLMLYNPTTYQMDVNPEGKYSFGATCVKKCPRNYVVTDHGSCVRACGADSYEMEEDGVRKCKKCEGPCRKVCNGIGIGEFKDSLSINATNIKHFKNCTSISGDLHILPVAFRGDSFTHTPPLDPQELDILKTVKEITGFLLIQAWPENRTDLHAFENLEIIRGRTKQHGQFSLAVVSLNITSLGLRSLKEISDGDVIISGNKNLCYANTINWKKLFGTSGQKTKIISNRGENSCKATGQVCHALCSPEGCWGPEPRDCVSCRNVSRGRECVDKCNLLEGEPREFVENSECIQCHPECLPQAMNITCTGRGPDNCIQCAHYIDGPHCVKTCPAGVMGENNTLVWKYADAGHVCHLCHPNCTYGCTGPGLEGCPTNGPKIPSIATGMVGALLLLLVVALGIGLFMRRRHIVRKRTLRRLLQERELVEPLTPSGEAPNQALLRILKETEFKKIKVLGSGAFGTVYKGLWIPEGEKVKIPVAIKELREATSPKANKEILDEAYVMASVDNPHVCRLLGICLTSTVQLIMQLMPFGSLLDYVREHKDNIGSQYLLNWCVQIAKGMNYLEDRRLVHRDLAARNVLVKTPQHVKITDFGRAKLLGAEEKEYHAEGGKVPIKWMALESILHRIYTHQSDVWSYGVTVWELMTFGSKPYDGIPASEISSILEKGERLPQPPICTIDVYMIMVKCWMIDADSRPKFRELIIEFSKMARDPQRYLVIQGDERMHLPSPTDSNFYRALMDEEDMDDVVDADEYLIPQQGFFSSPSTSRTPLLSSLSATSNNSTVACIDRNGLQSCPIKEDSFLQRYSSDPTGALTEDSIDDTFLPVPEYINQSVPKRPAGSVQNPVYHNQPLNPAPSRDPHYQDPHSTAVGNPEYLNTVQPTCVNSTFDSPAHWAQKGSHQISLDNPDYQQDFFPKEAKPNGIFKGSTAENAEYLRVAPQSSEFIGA

| SMILES | DTC Dmax (%) [1] | DC50 [1] | Dmax [2] | DC50 [2] |
| --- | --- | --- | --- | --- |
| CCc1cc(Nc2ncc(Br)c(Nc3ccc4nccnc4c3P(C)(C)=O)n2)c(OC)cc1N1CCC(N2CCN(CCc3cc(F)c(C4CCC(=O)NC4=O)cc3Cl)CC2)CC1 (stereo not drawn) [Example 165, 3-(4-(2-(4-(1-(4-((5-bromo-4-((5-(dimethylphosphoryl)quinoxalin-6-yl)amino)pyrimidin-2-yl)amino)-2-ethyl-5-methoxyphenyl)piperidin-4-yl)piperazin-1-yl)ethyl)-5-chloro-2-fluorophenyl)piperidine-2,6-dione] | 82.21% | 18.1 nM | 84.2% | 44 nM |
| CCc1cc(Nc2ncc(Br)c(Nc3ccc4nccnc4c3P(C)(C)=O)n2)c(OC)cc1N1CCC(N2CCN(CCNc3cccc4c3CN(C3CCC(=O)NC3=O)C4=O)CC2)CC1 (stereo not drawn) [Example 248, 3-(4-((2-(4-(1-(4-((5-bromo-4-((5-(dimethylphosphoryl)quinoxalin-6-yl)amino)pyrimidin-2-yl)amino)-2-ethyl-5-methoxyphenyl)piperidin-4-yl)piperazin-1-yl)ethyl)amino)-1-oxoisoindolin-2-yl)piperidine-2,6-dione] | 89.62% | 4.41 nM | 89.4% | 9.39 nM |
| COc1cc(N2CCC(N3CCN(CCc4cc(F)c(C5CCC(=O)NC5=O)c(F)c4)CC3)CC2)c(C(C)O)cc1Nc1ncc(Br)c(Nc2ccc3nccnc3c2P(C)(C)=O)n1 (stereo not drawn) [Example 430, 3-(4-(2-(4-(1-(4-((5-bromo-4-((5-(dimethylphosphoryl)quinoxalin-6-yl)amino)pyrimidin-2-yl)amino)-2-(1-hydroxyethyl)-5-methoxyphenyl)piperidin-4-yl)piperazin-1-yl)ethyl)-2,6-difluorophenyl)piperidine-2,6-dione] | 97.63% | 2.64 nM | 94.5% | 4.5 nM |
| CCc1cc(Nc2ncc(Br)c(Nc3ccc4c(=O)n(C)ccc4c3P(C)(C)=O)n2)c(OC)cc1N1CCC(N2CCN(CCC3CCN(c4cc(F)c(C5CCC(=O)NC5=O)c(F)c4)CC3)CC2)CC1 (stereo not drawn) [Example 720, 3-(4-(4-(2-(4-(1-(4-((5-bromo-4-((5-(dimethylphosphoryl)-2-methyl-1-oxo-1,2-dihydroisoquinolin-6-yl)amino)pyrimidin-2-yl)amino)-2-ethyl-5-methoxyphenyl)piperidin-4-yl)piperazin-1-yl)ethyl)piperidin-1-yl)-2,6-difluorophenyl)piperidine-2,6-dione] | 86.63% | 10.4 nM | 91.7% | 20.3 nM |
| CCc1cc(Nc2ncc(Br)c(Nc3ccc4nccnc4c3P(C)(C)=O)n2)c(OC)cc1N1CCC(N2CCN(CC3CN(c4cccc(C5CCC(=O)NC5=O)c4)C3)CC2)CC1 (stereo not drawn) [Example 226, 3-(3-(3-((4-(1-(4-((5-bromo-4-((5-(dimethylphosphoryl)quinoxalin-6-yl)amino)pyrimidin-2-yl)amino)-2-ethyl-5-methoxyphenyl)piperidin-4-yl)piperazin-1-yl)methyl)azetidin-1-yl)phenyl)piperidine-2,6-dione] | 77.91% | 26.6 nM | 66.9% | 31.4 nM |
| CCc1cc(Nc2ncc(Br)c(Nc3ccc4cc(C)ncc4c3P(C)(C)=O)n2)c(OC)cc1N1CCC(N2CCN(CCc3cc(F)c(C4CCC(=O)NC4=O)c(F)c3)CC2)CC1 (stereo not drawn) [Example 200, 3-(4-(2-(4-(1-(4-((5-bromo-4-((8-(dimethylphosphoryl)-3-methylisoquinolin-7-yl)amino)pyrimidin-2-yl)amino)-2-ethyl-5-methoxyphenyl)piperidin-4-yl)piperazin-1-yl)ethyl)-2,6-difluorophenyl)piperidine-2,6-dione] | 93.3% | 2.8 nM | 88.6% | 11.1 nM |
| CCc1cc(Nc2ncc(Br)c(Nc3ccc4nccnc4c3P(C)(C)=O)n2)c(OC)cc1N1CCC(N2CCN(C(=O)[C@H]3C[C@H](Nc4ccc(C5CCC(=O)NC5=O)cc4)C3)CC2)CC1 (stereo partly drawn) [Example 298, 3-(4-(((1r,3r)-3-(4-(1-(4-((5-bromo-4-((5-(dimethylphosphoryl)quinoxalin-6-yl)amino)pyrimidin-2-yl)amino)-2-ethyl-5-methoxyphenyl)piperidin-4-yl)piperazine-1-carbonyl)cyclobutyl)amino)phenyl)piperidine-2,6-dione] | 86.58% | 4.38 nM | 80.8% | 16.7 nM |
| CCc1cc(Nc2ncc(Br)c(Nc3ccc4nc(C)ccc4c3P(C)(C)=O)n2)c(OC)cc1N1CCC(N2CCN(CCC3CCN(c4cc(F)c(C5CCC(=O)NC5=O)c(F)c4)CC3)CC2)CC1 (stereo not drawn) [Example 312, 3-(4-(4-(2-(4-(1-(4-((5-bromo-4-((5-(dimethylphosphoryl)-2-methylquinolin-6-yl)amino)pyrimidin-2-yl)amino)-2-ethyl-5-methoxyphenyl)piperidin-4-yl)piperazin-1-yl)ethyl)piperidin-1-yl)-2,6-difluorophenyl)piperidine-2,6-dione] | 88.59% | 8.17 nM | 86.1% | 16.1 nM |
| CCc1cc(Nc2ncc(Br)c(Nc3ccc4ncccc4c3P(C)(C)=O)n2)c(OC)cc1N1CCC(N2CCN(CCc3cc(F)c(C4CCC(=O)NC4=O)c(F)c3)CC2)CC1 (stereo not drawn) [Example 201, 3-(4-(2-(4-(1-(4-((5-bromo-4-((5-(dimethylphosphoryl)quinolin-6-yl)amino)pyrimidin-2-yl)amino)-2-ethyl-5-methoxyphenyl)piperidin-4-yl)piperazin-1-yl)ethyl)-2,6-difluorophenyl)piperidine-2,6-dione] | 95.68% | 1.72 nM | 92% | 6.8 nM |
| CCc1cc(Nc2ncc(Br)c(Nc3ccc4nccnc4c3P(C)(C)=O)n2)c(OC)cc1N1CCC(N2CCN(C(=O)C3CN(c4ccc(C5CCC(=O)NC5=O)cc4)C3)CC2)CC1 (stereo not drawn) [Example 199, 3-(4-(3-(4-(1-(4-((5-bromo-4-((5-(dimethylphosphoryl)quinoxalin-6-yl)amino)pyrimidin-2-yl)amino)-2-ethyl-5-methoxyphenyl)piperidin-4-yl)piperazine-1-carbonyl)azetidin-1-yl)phenyl)piperidine-2,6-dione] | 84.49% | 9.03 nM | 86.6% | 22.1 nM |
| CCc1cc(Nc2ncc(Br)c(Nc3ccc4nccnc4c3P(C)(C)=O)n2)c(OC)cc1N1CCC(N2CCN(CC3CCN(c4ccc5c(c4)CN(C4CCC(=O)NC4=O)C5=O)CC3)CC2)CC1 (stereo not drawn) [Example 244, 3-(5-(4-((4-(1-(4-((5-bromo-4-((5-(dimethylphosphoryl)quinoxalin-6-yl)amino)pyrimidin-2-yl)amino)-2-ethyl-5-methoxyphenyl)piperidin-4-yl)piperazin-1-yl)methyl)piperidin-1-yl)-1-oxoisoindolin-2-yl)piperidine-2,6-dione] | 88.74% | 5.6 nM | 89.3% | 13 nM |
| CCc1cc(Nc2ncc(Br)c(Nc3ccc4nccnc4c3P(C)(C)=O)n2)c(OC)cc1N1CCC(N2CCN(C(=O)[C@H]3CCN(c4cccc(C5CCC(=O)NC5=O)c4)C3)CC2)CC1 (stereo partly drawn) [Example 225, 3-(3-((S)-3-(4-(1-(4-((5-bromo-4-((5-(dimethylphosphoryl)quinoxalin-6-yl)amino)pyrimidin-2-yl)amino)-2-ethyl-5-methoxyphenyl)piperidin-4-yl)piperazine-1-carbonyl)pyrrolidin-1-yl)phenyl)piperidine-2,6-dione] | 89.48% | 6.98 nM | 79.2% | 48.9 nM |
| COc1cc(N2CCC(N3CCN(CCC4CCN(c5cc(F)c(C6CCC(=O)NC6=O)c(F)c5)CC4)CC3)CC2)ccc1Nc1ncc(Br)c(Nc2ccc3nccnc3c2P(C)(C)=O)n1 (stereo not drawn) [Example 213, 3-(4-(4-(2-(4-(1-(4-((5-bromo-4-((5-(dimethylphosphoryl)quinoxalin-6-yl)amino)pyrimidin-2-yl)amino)-3-methoxyphenyl)piperidin-4-yl)piperazin-1-yl)ethyl)piperidin-1-yl)-2,6-difluorophenyl)piperidine-2,6-dione] | 94.05% | 4.71 nM | 88.6% | 21.1 nM |
| COc1cc(N2CCC(N3CCN(CCc4ccc(C5CCC(=O)NC5=O)c(F)c4)CC3)CC2)c(C)cc1Nc1ncc(Br)c(Nc2ccc3nccnc3c2P(C)(C)=O)n1 (stereo not drawn) [Example 214, 3-(4-(2-(4-(1-(4-((5-bromo-4-((5-(dimethylphosphoryl)quinoxalin-6-yl)amino)pyrimidin-2-yl)amino)-5-methoxy-2-methylphenyl)piperidin-4-yl)piperazin-1-yl)ethyl)-2-fluorophenyl)piperidine-2,6-dione] | 85.16% | 13.7 nM | 75% | 54.9 nM |
| CCc1cc(Nc2ncc(Br)c(Nc3ccc4nc(C)ccc4c3P(C)(C)=O)n2)c(OC)cc1N1CCC(N2CCN(C(=O)[C@@H]3CCN(c4cc(F)c(C5CCC(=O)NC5=O)c(F)c4)C3)CC2)CC1 (stereo partly drawn) [Example 208, 3-(4-((R)-3-(4-(1-(4-((5-bromo-4-((5-(dimethylphosphoryl)-2-methylquinolin-6-yl)amino)pyrimidin-2-yl)amino)-2-ethyl-5-methoxyphenyl)piperidin-4-yl)piperazine-1-carbonyl)pyrrolidin-1-yl)-2,6-difluorophenyl)piperidine-2,6-dione] | 97.62% | 1.47 nM | 93.9% | 4.13 nM |
